Results taken from patent US20070244190A1, “Neobritannilactone B and acetyl neobritannilactone B” (priority 2006, published 2007).

Key:
HL-60 cells [1] = test: Cell viability, trypan blue exclusion, 24 h; type: cell-based; details: HL-60, 24 h, mean ± SE, n=3, read-out: IC50, growth of human cancer cells
Method: (§1) Cell Culture and Chemicals. The COLO 205 and HT 29 cell lines were isolated from human colon adenocarcinoma (ATCC CCL-222 and HTB-38); human promyelocytic leukemia (HL-60) cells were obtained from American Type Culture Collection (Rockville, Md.). The human AGS gastric carcinoma cell lines (CCRC 60102) were obtained from the Food Industry Research and Development Institute (Hsinchu, Taiwan). Cell lines were grown at 37° C. in 5% CO2 dioxide atmosphere in RPMI for COLO 205, HT-29, and HL-60 cells and DMEM/F12 for AGS cells, all supplemented with 10% heat-inactivated fetal bovine serum (GIBCO BRL, Grand Island, N.Y.) (100 units/mL of penicillin, 100 μg/mL of streptomycin), and 2 mM L-glutamine (GIBCO BRL). Selected compounds were dissolved in dimethyl sulfoxide (DMSO). Propidium iodide was obtained from Sigma Chemical Co. (St. Louis, Mo.).
(§2) Determination of Cell Viability. Human cancer cells were treated either with DMSO (0.01%) or the selected compounds (5-100 μM). Cell viability was determined at 24 h based on trypan blue exclusion assay. The viability percentage was calculated based on the percentage of unstained cells. Suspensions of cells were diluted 1:1 with 0.5% trypan blue solution. Stained and unstained cells were counted in a hemocytometer.

HT-29 cells [2] = test: Cell viability, trypan blue exclusion, 24 h; type: cell-based; details: HT-29, 24 h, mean ± SE, n=3, read-out: IC50, growth of human cancer cells
Method: as §1, §2

AGS cells [3] = test: Cell viability, trypan blue exclusion, 24 h; type: cell-based; details: mean ± SE, n=3, read-out: IC50, growth of human cancer cells
Method: as §1, §2

COLO 205 cells [4] = test: Cell viability, trypan blue exclusion, 24 h; type: cell-based; details: COLO 205, 24 h, mean ± SE, n=3, read-out: IC50, growth of human cancer cells
Method: as §1, §2

HL-60 cells [5] = test: Apoptosis (sub-G1) by flow cytometry; type: cell-based, human; details: 24 h, mean ± SE
Method: as §1
(§3) Flow Cytometry. Human cancer cells (2×10^5) were cultured in 60-mm Petri dishes and incubated for 24 h. The apoptotic cells (sub-G1) in the selected compounds and treated cells were measured by flow cytometry analysis. Then cells were harvested, washed with PBS, resuspended in 200 μL of PBS, and fixed in 800 μL of iced 100% ethanol at −20° C. After being left to stand overnight, the cell pellets were collected by centrifugation, resuspended in 1 mL of hypotonic buffer (0.5% Triton X-100 in PBS and 0.5 μg/mL RNase), and incubated at 37° C. for 30 min. Then 1 mL of propidium iodide solution (50 μg/mL) was added and the mixture was allowed to stand on ice for 30 min. Fluorescence emitted from the propidium iodide-DNA complex was quantitated after excitation of the fluorescent dye by FACScan cytometry (Becton Dickinson, San Jose, Calif.).
(§4) The compounds isolated from Inula were tested for their effects on the apoptotic ratio in human cancer cells.

HT-29 cells [6] = test: Apoptosis (sub-G1) by flow cytometry; type: cell-based, human; details: 24 h, mean ± SE
Method: as §1, §3, §4

AGS cells [7] = test: Apoptosis (sub-G1) by flow cytometry; type: cell-based, human; details: 24 h, mean ± SE
Method: as §1, §3, §4

COLO 205 cells [8] = test: Apoptosis (sub-G1) by flow cytometry; type: cell-based, human; details: 24 h, mean ± SE
Method: as §1, §3, §4

Bcl-XL in AGS cells = test: Western blot of Bcl-XL expression; type: cell-based, human; details: for Bcl-XL expression: various concentrations, 24 hours, FIG. 7A
Method: Western Blotting. […] The total proteins were extracted via the addition of 200 μL of gold lysis buffer (50 mM Tris-HCl, pH 7.4; 1 mM NaF; 150 mM NaCl; 1 mM EGTA; 1 mM phenylmethanesulfonyl fluoride; 1% NP-40; and 10 μg/mL leupeptin) to the cell pellets on ice for 30 min, followed by centrifugation at 10,000 g for 30 min at 4° C. The cytosolic fraction (supernatant) proteins were measured by Bio-Rad protein assay (Bio-Rad Laboratories, Munich, Germany). The samples (50 μg of protein) were mixed with 5× sample buffer containing 0.3 M Tris-HCl (pH 6.8), 25% 2-mercaptoethanol, 12% sodium dodecyl sulfate (SDS), 25 mM EDTA, 20% glycerol, and 0.1% bromophenol blue. The mixtures were boiled at 100° C. for 5 min and were subjected to 12% SDS-polyacrylamide minigels at a constant current of 20 mA. Subsequently, electrophoresis was ordinarily carried out on SDS-polyacrylamide gels. For electrophoresis, proteins on the gel were electrotransferred onto an immobile membrane (PVDF; Millipore Corp., Bedford, Mass.) with transfer buffer composed of 25 mM Tris-HCl (pH 8.9), 192 mM glycine, and 20% methanol. The membranes were blocked with blocking solution containing 20 mM Tris-HCl and then immunoblotted with primary antibodies including, anti-Bcl-XL, anti-β-actin (Transduction Laboratory, Lexington, Ky.), anti-PARP (UBI, Inc., Lake Placid, N.Y.), at room temperature for 1 h. Detection was achieved by measuring the chemiluminescence of blotting agent (ECL, Amersham Corp., Arlington Heights, Ill.), after exposure of the filters to KODAK X-OMAT films.
Several gene products are known to be important in controlling the apoptotic process. The imbalance of expression of anti- and pro-apoptotic proteins after a stimulus is one of the major mechanisms underlying the ultimate fate of cells in the apoptotic process. Bcl-XL expression in tumor cells, for instance, confers resistance against chemotherapeutic drugs. The expression of anti-apoptotic protein Bcl-XL was therefore examined in cancer cells treated with various concentrations of NAB or ANAB for 24 hours. […] FIG. 7A. […] FIG. 7B.

Compound	IC50 (HL-60 cells [1])	IC50 (HT-29 cells [2])	IC50 (AGS cells [3])	IC50 (COLO 205 cells [4])	apoptotic ratio (HL-60 cells [5]; HL-60, 5 μM)	apoptotic ratio (HL-60 cells [5]; HL-60, 10 μM)	apoptotic ratio (HL-60 cells [5]; HL-60, 25 μM)	apoptotic ratio (HL-60 cells [5]; HL-60, 50 μM)	apoptotic ratio (HL-60 cells [5]; HL-60, 100 μM)	apoptotic ratio (HT-29 cells [6]; HT-29, 5 μM)	apoptotic ratio (HT-29 cells [6]; HT-29, 10 μM)	apoptotic ratio (HT-29 cells [6]; HT-29, 25 μM)	apoptotic ratio (HT-29 cells [6]; HT-29, 50 μM)	apoptotic ratio (HT-29 cells [6]; HT-29, 100 μM)	apoptotic ratio (AGS cells [7]; 5 μM)	apoptotic ratio (AGS cells [7]; 10 μM)	apoptotic ratio (AGS cells [7]; 25 μM)	apoptotic ratio (AGS cells [7]; 50 μM)	apoptotic ratio (AGS cells [7]; 100 μM)	apoptotic ratio (COLO 205 cells [8]; COLO 205, 5 μM)	further results
C=C1C(=O)OC2C=C(C)CCC=C(C)CC(O)C12 (stereo not drawn) [Compound 3, 4-hydroxy-3α,4,5,8,9,11α-hexahydro-6,10-dimethyl-3-methylene-cyclodeca[b]furan-2(3H)-one]	27.4 µM	56.1 µM	21.4 µM	14.3 µM	9.82 ± 1.90%	21.93 ± 2.81%	77.57 ± 7.06%	96.94 ± 0.57%	98.29 ± 0.15%	13.58 ± 0.87%	24.46 ± .88%	66.54 ± 1.58%	82.27 ± 1.68%	87.02 ± 0.30%	9.55 ± 3.05%	8.66 ± 0.80%	11.78 ± 1.40%	15.95 ± 1.12%	19.22 ± 0.57%	10.73 ± 2.31%	apoptotic ratio (HL-60 cells [5]; HL-60, 25 μM, listed as NAB): 77.54%; apoptotic ratio (HT-29 cells [6]; HT-29, 25 μM, listed as NAB): 66.54%; apoptotic ratio (AGS cells [7]; 25 μM, listed as NAB): 11.78%; apoptotic ratio (COLO 205 cells [8]; COLO 205, 10 μM): 14.12 ± 1.06%; apoptotic ratio (COLO 205 cells [8]; COLO 205, 25 μM): 41.62 ± 6.34%; apoptotic ratio (COLO 205 cells [8]; COLO 205, 25 μM, listed as NAB): 41.62%; apoptotic ratio (COLO 205 cells [8]; COLO 205, 50 μM): 89.11 ± 1.47%; apoptotic ratio (COLO 205 cells [8]; COLO 205, 100 μM): 96.81 ± 0.51%; Bcl-XL expression (Bcl-XL in AGS cells): dose-dependent decrease of Bcl-XL
C=C1C(=O)O[C@H]2/C=C(\C)CC/C=C(\C)C[C@H](OC(C)=O)[C@@H]12 [Compound 4, acetyl neobritannilactone B]	16.2 µM	57 µM	5.4 µM	14.7 µM	22.93 ± 1.34%	39.71 ± 2.85%	95.17 ± 1.61%	97.74 ± 0.44%	98.05 ± .30%	20.38 ± .17%	47.56 ± 0.00%	69.70 ± .22%	81.43 ± 1.46%	82.47 ± 2.06%	6.16 ± 1.17%	7.87 ± 3.03%	9.89 ± 4.44%	13.64 ± 0.28%	43.11 ± 0.99%	15.47 ± 1.69%	apoptotic ratio (HL-60 cells [5]; HL-60, 25 μM, listed as ANAB): 95.17%; apoptotic ratio (HT-29 cells [6]; HT-29, 25 μM, listed as ANAB): 69.70%; apoptotic ratio (AGS cells [7]; 25 μM, listed as ANAB): 9.89%; apoptotic ratio (COLO 205 cells [8]; COLO 205, 10 μM): 34.72 ± 2.72%; apoptotic ratio (COLO 205 cells [8]; COLO 205, 25 μM): 76.87 ± 2.39%; apoptotic ratio (COLO 205 cells [8]; COLO 205, 25 μM, listed as ANAB): 76.87%; apoptotic ratio (COLO 205 cells [8]; COLO 205, 50 μM): 96.92 ± 0.20%; apoptotic ratio (COLO 205 cells [8]; COLO 205, 100 μM): 98.66 ± 0.10%; Bcl-XL expression over time (Bcl-XL in AGS cells; at 12 h, 15 μM, FIG. 7B): marked and significant change in the expression of Bcl-XL; Bcl-XL expression (Bcl-XL in AGS cells): dose-dependent decrease of Bcl-XL
